Measurements from ChEMBL document CHEMBL5338821, “6-Substituted Triazolyl Benzoxaboroles as Selective Carbonic Anhydrase Inhibitors: In Silico Design, Synthesis, and X-ray Crystallography” (J Med Chem, 2023).

Assays:
[1] = target: Carbonic anhydrase 2 (Homo sapiens, UniProt P00918); assay: Inhibition of recombinant human carbonic anhydrase II assessed as inhibition constant incubated for 15 mins by phenol red dye based stopped-flow CO2 hydration assay
[2] = target: Carbonic anhydrase 4 (Homo sapiens, UniProt P22748); assay: Inhibition of recombinant human carbonic anhydrase IV assessed as inhibition constant incubated for 15 mins by phenol red dye based stopped-flow CO2 hydration assay
Sequence of Carbonic anhydrase 4 (P22748 whole entry): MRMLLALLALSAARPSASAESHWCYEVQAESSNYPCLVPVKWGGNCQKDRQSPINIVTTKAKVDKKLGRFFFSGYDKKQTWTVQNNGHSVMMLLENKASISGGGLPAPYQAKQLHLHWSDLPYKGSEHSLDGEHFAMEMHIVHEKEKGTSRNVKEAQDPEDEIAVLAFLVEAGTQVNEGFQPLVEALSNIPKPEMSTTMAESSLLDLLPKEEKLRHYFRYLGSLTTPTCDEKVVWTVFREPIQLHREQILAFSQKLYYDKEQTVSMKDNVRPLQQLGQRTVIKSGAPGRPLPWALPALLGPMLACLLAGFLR

[3] = target: Carbonic anhydrase 9 (Homo sapiens, UniProt Q16790); assay: Inhibition of recombinant human carbonic anhydrase IX assessed as inhibition constant incubated for 15 mins by phenol red dye based stopped-flow CO2 hydration assay
[4] = target: Carbonic anhydrase 1 (Homo sapiens, UniProt P00915); assay: Inhibition of recombinant human carbonic anhydrase I assessed as inhibition constant incubated for 15 mins by phenol red dye based stopped-flow CO2 hydration assay
Sequence of Carbonic anhydrase 1 (P00915 whole entry): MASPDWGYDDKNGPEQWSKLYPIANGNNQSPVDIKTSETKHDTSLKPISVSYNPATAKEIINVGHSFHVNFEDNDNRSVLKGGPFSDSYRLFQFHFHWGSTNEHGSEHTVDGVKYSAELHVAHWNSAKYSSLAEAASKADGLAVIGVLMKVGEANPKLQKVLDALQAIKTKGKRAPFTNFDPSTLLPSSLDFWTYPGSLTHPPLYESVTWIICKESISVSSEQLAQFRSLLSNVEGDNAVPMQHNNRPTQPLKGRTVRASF

[5] = target: Carbonic anhydrase 7 (Homo sapiens, UniProt P43166); assay: Inhibition of recombinant human carbonic anhydrase VII assessed as inhibition constant incubated for 15 mins by phenol red dye based stopped-flow CO2 hydration assay
Sequence of Carbonic anhydrase 7 (P43166 whole entry): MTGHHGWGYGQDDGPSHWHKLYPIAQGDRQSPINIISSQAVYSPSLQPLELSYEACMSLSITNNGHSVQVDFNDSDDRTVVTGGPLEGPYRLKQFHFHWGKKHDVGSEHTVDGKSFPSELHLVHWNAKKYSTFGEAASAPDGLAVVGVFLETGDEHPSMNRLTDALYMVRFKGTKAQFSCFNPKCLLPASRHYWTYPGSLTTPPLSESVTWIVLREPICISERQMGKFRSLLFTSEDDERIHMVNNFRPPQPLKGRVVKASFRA

[6] = species: Homo sapiens; assay: Selectivity index, ratio of Ki for inhibition of recombinant human carbonic anhydrase II to Ki for inhibition of recombinant human carbonic anhydrase VII
[7] = species: Homo sapiens; assay: Selectivity index, ratio of Ki for inhibition of recombinant human carbonic anhydrase I to Ki for inhibition of recombinant human carbonic anhydrase VII
[8] = species: Homo sapiens; assay: Selectivity index, ratio of Ki for inhibition of recombinant human carbonic anhydrase I to Ki for inhibition of recombinant human carbonic anhydrase IX
[9] = species: Homo sapiens; assay: Selectivity index, ratio of Ki for inhibition of recombinant human carbonic anhydrase II to Ki for inhibition of recombinant human carbonic anhydrase IX

Row | Compound | Ki [1] [nM] | Ki [2] [nM] | Ki [3] [nM] | Ki [4] [nM] | Ki [5] [nM] | Ratio Ki [6] | Ratio Ki [7] | Ratio Ki [8] | Ratio Ki [9]
1 | CC(C)(C)OC(=O)NCc1cn(-c2ccc3c(c2)B(O)OC3)nn1 | 461 | 730 | 75.2 | 737 | 135 | – | – | – | –
2 | OB1OCc2ccc(-n3cc(C4CC4)nn3)cc21 | 1080 | 3220 | 389 | 2320 | 474 | – | – | – | –
3 | OB1OCc2ccc(-n3cc(COc4ccccc4)nn3)cc21 | 205 | 1380 | 29.1 | 343 | 56.2 | – | – | – | –
4 | O=C(O)c1cccc(-c2cn(-c3ccc4c(c3)B(O)OC4)nn2)c1 | 310 | 749 | 114 | 505 | 67.5 | – | – | – | –
5 | O=c1ccc2ccc(OCc3cn(-c4ccc5c(c4)B(O)OC5)nn3)cc2o1 | 375 | 3180 | 111 | 2600 | 70.2 | – | – | – | –
6 | OCCc1cn(-c2ccc3c(c2)B(O)OC3)nn1 | 494 | 497 | 70.4 | 1460 | 81.7 | – | – | – | –
7 | [N-]=[N+]=Nc1ccc2c(c1)B(O)OC2 | 350 | 3120 | 539 | 3040 | 432 | – | – | – | –
8 | OB1OCc2ccc(-n3cc(CSc4ccccc4)nn3)cc21 | 270 | 1610 | 33.2 | 300 | 49.2 | 6 | 6 | – | –
9 | OB1OCc2ccc(-n3cc(-c4ccccc4)nn3)cc21 | 362 | 1180 | 122 | 740 | 262 | – | – | – | –
10 | OCc1cn(-c2ccc3c(c2)B(O)OC3)nn1 | 873 | 928 | 145 | 1090 | 141 | – | – | – | –
11 | COc1cccc(OCc2cn(-c3ccc4c(c3)B(O)OC4)nn2)c1 | 183 | 1930 | 32 | 1100 | 124 | – | – | – | –
12 | OB1OCc2ccc(-n3cc(COc4ccc(F)cc4)nn3)cc21 | 186 | 1050 | 28 | 336 | 35.6 | 6 | 6 | 6 | 6
13 | CCOC(=O)c1cn(-c2ccc3c(c2)B(O)OC3)nn1 | 796 | 2480 | 337 | 2510 | 441 | – | – | – | –
14 | COc1ccc(OCc2cn(-c3ccc4c(c3)B(O)OC4)nn2)cc1 | 258 | 1660 | 52 | 863 | 88.1 | – | – | – | –
